# Laboratory results taken from patent US11046945B2, “Labeled glutaminase proteins, isolated glutaminase protein mutants, methods of use, and kit” (CORNELL UNIVERSITY, priority 2013, dated 2021).
# Target: T1, GAC (Mus musculus, UniProt D3Z7P3)
# T1 construct: plasmid (residues 72-603 for GAC, 72-674 for KGA); His-tag with thrombin cleavage site (N, cleaved yes); made in house; host or cells: pET23a vector
# T1 sequence (D3Z7P3 72-603 isoform D3Z7P3-2): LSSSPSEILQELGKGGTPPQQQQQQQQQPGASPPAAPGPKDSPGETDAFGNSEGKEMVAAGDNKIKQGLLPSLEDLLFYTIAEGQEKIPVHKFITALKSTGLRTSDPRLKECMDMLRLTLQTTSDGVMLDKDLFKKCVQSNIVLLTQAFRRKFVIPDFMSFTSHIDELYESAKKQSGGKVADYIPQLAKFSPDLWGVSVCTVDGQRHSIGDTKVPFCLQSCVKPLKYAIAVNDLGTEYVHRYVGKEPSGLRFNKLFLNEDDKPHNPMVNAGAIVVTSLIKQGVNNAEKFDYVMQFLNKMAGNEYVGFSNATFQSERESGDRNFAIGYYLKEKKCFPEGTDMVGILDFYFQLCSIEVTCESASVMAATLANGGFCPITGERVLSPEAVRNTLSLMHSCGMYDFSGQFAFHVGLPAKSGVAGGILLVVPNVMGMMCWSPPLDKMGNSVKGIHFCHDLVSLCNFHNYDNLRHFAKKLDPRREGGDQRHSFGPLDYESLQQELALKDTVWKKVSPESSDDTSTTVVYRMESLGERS
# Assay: FRET assay of GAC tetramer formation (488-GAC donor, QSY 9-GAC acceptor)
# Assay type: binding
# Conditions: for effect on 488-GAC fluorescence emission in equilibrated 488-GAC/QSY 9-GAC mixture: 20 nM 488-GAC and 200 nM QSY 9-GAC
# Excerpt: A mouse kidney type glutaminase isoform 1 (KGA, NP_001074550.1, which is hereby incorporated by reference in its entirety (SEQ ID NO:7)) and isoform 2 (GAC, NP_001106854.1, which is hereby incorporated by reference in its entirety (SEQ ID NO:3)) plasmid (residues 72-603 for GAC, 72-674 for KGA) was cloned into a pET23a vector containing an N-terminal histidine (His)-tag and thrombin cleavage site. The expressed protein was initially purified using Co^2+ affinity beads (Clontech), after which the His-tag was cleaved with human thrombin (Haemetologic Technologies) overnight at 4° C. and subsequently purified by anion exchange (GE healthcare) and gel filtration chromatography. Purified GAC or KGA was stored in a high salt containing buffer (20 mM Tris-HCl pH 8.5, 500 mM NaCl, 1 mM NaN3) and stored at −80° C. following snap freezing in liquid N2 for long term use. For labeling recombinant GAC or KGA with small molecule probes, 1.5 mg of enzyme was exchanged to 50 mM HEPES pH 7.2, 100 mM NaCl using a PD10 desalting column (GE healthcare) and incubated with 50 μM (5-fold excess of enzyme) of either ALEXA FLUOR® 488 succinimidyl ester or QSY® 9 succinimidyl ester (Molecular Probes) for 1 hr at 4° C. After 1 hr, the labeling reaction was quenched with 150 mM Tris-HCl pH 8.5 and unreacted probe was separated from labeled-enzyme using a PD10 desalting column eluting labeled-GAC back into the high salt containing buffer.
# Fluorescence experiments were performed using a Varian Carry Eclipse Fluorometer in the counting mode. Excitation and emission wavelengths were 490 and 520 nm, respectively. Experiments were all prepared as one-mL samples and stirred continuously at 20° C. in 50 mM Tris-Acetate pH 8.5, 0.1 mM ethylenediaminetetraacetic acid (EDTA). For WT GAC titrations in the absence of inorganic phosphate, 10 nM 488-GAC was equilibrated followed by injection of 25 μL of the appropriate concentration of QSY® 9-GAC and was allowed to equilibrate for 10 minutes at which point 75 μL of the appropriate concentration of unlabeled WT GAC was added to give a concentration that was ten-times that of labeled-GAC (i.e., 10-fold excess). For FRET experiments prepared for inorganic phosphate titrations, a similar protocol was followed whereby 10 nM of 488-GAC was equilibrated with 400 nM QSY® 9-GAC followed by injection of 100 μL of the appropriate concentration of K2HPO4 prepared in 50 mM Tris-Acetate (pH=8.5) 0.1 mM EDTA buffer. To test whether purified mutants can form oligomers with WT GAC, 200 nM QSY® 9-D391K-GAC or 200 nM QSY® 9-K316E-D391K-R459E was added to an equilibrated sample of 20 nM 488-WT GAC. Likewise, when assaying the effects of BPTES and 968 on oligomer formation, BPTES or 968 (10 μM or 25 μM, respectively) was added following equilibration of a sample of 200 nM of QSY® 9-WT GAC and 20 nM 488-WT GAC. Both BPTES and 968 were prepared in DMSO, and appropriate dilutions were made so that less than 2% (v/v) DMSO was added to an experimental sample.
Structure (SMILES),effect on 488-GAC fluorescence emission in equilibrated 488-GAC/QSY 9-GAC mixture (10 μM BPTES),"reversal of induced tetramers/quenching by excess unlabeled GAC (10 μM BPTES, 10-fold excess unlabeled GAC)",effect on 488-GAC fluorescence emission in equilibrated 488-GAC/QSY 9-GAC mixture (25 μM 968)
O=C(Cc1ccccc1)Nc1nnc(CCSCCc2nnc(NC(=O)Cc3ccccc3)s2)s1 [BPTES],immediate quenching,stable and not disrupted,
CN(C)c1ccc(C2Nc3ccc4ccccc4c3C3=C2C(=O)CC(C)(C)C3)cc1Br (stereo not drawn) [compound 968],,,significant change in the fluorescence emission
